# According to ChEMBL document CHEMBL5233287, “In Vitro Hypoglycemic Diterpenoids from the Roots of Croton yunnanensis” (J Nat Prod, 2023):
# Active and inactive are the calls of the source. The rule behind the calls is not given here.
# How the values were obtained:
# [1] = tested on: 3T3-L1; assay: Hypoglycemic activity in insulin-resistant mouse 3T3-L1 cells assessed as increase in 2-deoxyglucose uptake treated with compound for 10 mins followed by 2-deoxyglucose challenge for 30 mins by liquid scintillation counting analysis; format: functional, cell-based; conditions: time 40.0 min
# [2] = tested on: 3T3-L1; assay: Insulin sensitizing activity in mouse 3T3-L1 cells assessed as increase in 2-deoxyglucose uptake at 5 to 20 uM treated with compound and insulin for 10 mins followed by 2-deoxyglucose challenge for 30 mins by liquid scintillation counting analysis; format: functional, cell-based; conditions: dose 5-20 µM, time 40.0 min
SMILES,Activity [1],Activity [2]
COC(=O)C1=CCC[C@H]2[C@@]13CC[C@@H](C)[C@]21C[C@@H](C2=CC(=O)O[C@H]2OC)O[C@@H]1O[C@@H]3OC,Active,–
COC(=O)C1=CCC[C@@H]2[C@]34C[C@@H](c5ccoc5)O[C@@H]3O[C@]12CC[C@H]4C,Active,–
COC(=O)C1=CCC[C@H]2[C@@]13CC[C@@H](C)[C@]21C[C@@H](C2=C[C@@H](OC)OC2=O)O[C@@H]1OC3=O,Active,–
COC(=O)C1=CCC[C@@H]2[C@]34C[C@@H](C5=C[C@@H](OC)OC5=O)O[C@@H]3O[C@]12CC[C@H]4C,Active,–
C=C1CC[C@]23[C@@H](OC(=O)c4ccccc4)O[C@H]4O[C@H](c5ccoc5)C[C@]14[C@H]2CCC(=O)[C@@]3(O)C(=O)OC,Active,Active
COC(=O)C1=CCC[C@@H]2[C@]34C[C@@H](C5=CC(=O)O[C@H]5OC)O[C@@H]3O[C@]12CC[C@H]4C,Active,Active
COC(=O)[C@H]1C=CC[C@H]2[C@@]13CC[C@@H](C)[C@]21C[C@@H](C2=CC(=O)O[C@H]2OC)O[C@@H]1O3,Active,–
